The text below walks through data of ChEMBL document CHEMBL1124430, “Dermorphin analogues carrying an increased positive net charge in their "message" domain display extremely high mu opioid receptor selectivity” (J Med Chem, 1989).

Assay [1] is filed under the species Cavia porcellus. As to the kind of experiment: The relative potency of compound was measured by comparing with [Leu]enkephalin in Guinea pig ileum(GPI) assay. It counts as functional.
The species entered for assay [2] is Cavia porcellus. As to the kind of experiment: Ke value for naloxon as antagonist (compound) was measured by using Guinea pig ileum assay. The class given is functional.
Assay [3] is filed under the species Mus musculus. In words: Ke value for naloxone as antagonist (compound) was measured by using Mouse vas deferens (MVD) assay. It counts as functional.
The species entered for assay [4] is Cavia porcellus. In words: Concentration of compound to inhibit 50% (IC50) electrically evoked contractions was tested in Guinea pig ileum(GPI) assay. It counts as functional.
The species named for assay [5] is Mus musculus. In words: The relative potency of compound was measured by comparing with [Leu]enkephalin in Mouse vas deferens (MVD) assay. The class given is functional.
For assay [6], the species on record is Mus musculus. As to the kind of experiment: Concentration of compound to inhibit 50% (IC50) electrically evoked contractions was tested in Mouse vas deferens (MVD) assay. It counts as functional.
A short description of assay [7]: Ratio of IC50 in Mouse vas deferens and Guinea pig ileum assay. It counts as functional.
The target in assay [8] is T1, Delta-type opioid receptor (Rattus norvegicus, UniProt P33533). As to the kind of experiment: Binding affinity against Opioid receptor delta 1 by displacement of radioligand [3H]DSLET in rat brain membrane. It counts as cell membranes.
The target of assay [9] is T2, Mu-type opioid receptor (Rattus norvegicus, UniProt P33535). As to the kind of experiment: Binding affinity against mu opioid receptor by displacement of radioligand [3H]DAGO in rat brain membrane. It counts as cell membranes.
For assay [10], the target named is T1, Delta-type opioid receptor. In words: Binding affinity against delta opioid receptor by displacement of radioligand [3H]DSLET in rat brain membrane. The class given is cell membranes.
For assay [11], the target named is Mu-type opioid receptor (Rattus norvegicus) (UniProt P33535). As to the kind of experiment: Ratio of binding affinity of opioid receptor mu and opioid receptor delta.
The target is the same in assay [12]. In words: The relative potency of compound was measured against Opioid receptor mu to that of [Leu]enkephalin in [3H]DAGO binding assay.
The species named for assay [13] is Mus musculus. As to the kind of experiment: The relative potency of compound was measured by comparing the potency of compound to the [Leu]enkephalin in Mouse vas deferens (MVD) assay. It counts as functional.
Assay [14] is filed under the species Cavia porcellus. As to the kind of experiment: The relative potency of compound was measured by comparing the potency of compound to the [Leu]enkephalin in Guinea pig ileum(GPI) assay. The class given is functional.
In assay [15] the target is Delta-type opioid receptor (Rattus norvegicus) (UniProt P33533). As to the kind of experiment: The relative potency of compound was measured against opioid receptor delta to that of [Leu]enkephalin in [3H]DSLET binding assay.
Assay [16] concerns the target T2, Mu-type opioid receptor. As to the kind of experiment: Binding affinity against Opioid receptor mu 1 by displacement of radioligand [3H]-DAGO in rat brain membrane. It counts as cell membranes.
For assay [17], the target named is Mu-type opioid receptor (Rattus norvegicus) (UniProt P33535). In words: The relative potency of compound was measured against Opioid receptor mu 1 to that of [Leu]enkephalin in [3H]DAGO binding assay.
Assay [18] deals with Delta-type opioid receptor (Rattus norvegicus) (UniProt P33533). As to the kind of experiment: The relative potency of compound was measured against Opioid receptor delta 1 to that of [Leu]enkephalin in [3H]DSLET binding assay.
Assay [19] concerns the target T1, Delta-type opioid receptor. As to the kind of experiment: Binding affinity against opioid receptor delta by displacement of radioligand [3H]DSLET in rat brain membrane. The class given is cell membranes.
In assay [20] the target is T2, Mu-type opioid receptor. In words: Binding affinity against opioid receptor mu by displacement of radioligand [3H]DAGO in rat brain membrane. It counts as cell membranes.
The target in assay [21] is T2, Mu-type opioid receptor. In words: Binding affinity against Opioid receptor mu 1 by displacement of radioligand [3H]DAGO in rat brain membrane. It counts as cell membranes.
In assay [22] the target is Delta-type opioid receptor (Rattus norvegicus) (UniProt P33533). In words: The relative potency of compound was measured against dOpioid receptor delta 1 to that of [Leu]enkephalin in [3H]DSLET binding assay.

Square brackets hold non-standard residues; d marks the D form. Peptide text beside a SMILES is read from it. dNle = CCCC[C@@H](N)C(=O)O; dNva = CCC[C@@H](N)C(=O)O; Orn = NCCC[C@H](N)C(=O)O

Chain of Delta-type opioid receptor (Rattus norvegicus) (P33533 whole entry): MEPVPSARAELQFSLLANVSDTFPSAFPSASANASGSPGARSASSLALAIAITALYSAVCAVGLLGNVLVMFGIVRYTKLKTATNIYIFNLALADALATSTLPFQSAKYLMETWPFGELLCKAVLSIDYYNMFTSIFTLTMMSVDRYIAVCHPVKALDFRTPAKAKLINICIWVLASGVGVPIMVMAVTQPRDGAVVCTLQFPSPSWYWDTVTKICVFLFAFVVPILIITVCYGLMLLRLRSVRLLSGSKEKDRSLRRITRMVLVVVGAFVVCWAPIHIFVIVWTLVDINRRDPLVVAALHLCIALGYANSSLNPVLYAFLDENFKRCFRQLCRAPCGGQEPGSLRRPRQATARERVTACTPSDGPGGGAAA
T1 sequence (P33533 whole entry): as above
Chain of Mu-type opioid receptor (Rattus norvegicus) (P33535 whole entry): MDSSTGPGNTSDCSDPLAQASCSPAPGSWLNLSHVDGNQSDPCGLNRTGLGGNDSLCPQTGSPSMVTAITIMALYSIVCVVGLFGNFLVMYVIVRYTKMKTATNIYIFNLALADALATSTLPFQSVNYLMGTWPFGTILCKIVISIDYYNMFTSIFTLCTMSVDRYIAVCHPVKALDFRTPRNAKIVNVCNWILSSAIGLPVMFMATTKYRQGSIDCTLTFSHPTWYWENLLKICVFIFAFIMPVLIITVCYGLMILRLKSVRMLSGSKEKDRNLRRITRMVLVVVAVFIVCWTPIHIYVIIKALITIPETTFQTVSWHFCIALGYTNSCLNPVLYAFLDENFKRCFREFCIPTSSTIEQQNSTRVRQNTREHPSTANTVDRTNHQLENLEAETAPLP
T2 sequence (P33535 whole entry): as above

In the case of `CCCC[C@@H](NC(=O)[C@@H](N)Cc1ccc(O)cc1)C(=O)N[C@@H](Cc1ccccc1)C(=O)N[C@@H](CCCN)C(N)=O` (H-Y[dNle]F[Orn]-NH2), the Relative potency in the assay listed under Cavia porcellus [1] is recorded as 1.46; in the assay filed under Mus musculus [5] it was 0.00498. Moreover, the Ke in the assay filed under Cavia porcellus [2] was 1.01 nM; in the assay filed under Mus musculus [3] it was 1.5 nM. Also, the IC50 in the assay listed under Cavia porcellus [4] came out at 168 nM; in the assay filed under Mus musculus [6] it was 2290 nM. Besides, the Ratio in assay [7] is on record as 13.6.
As for `C[C@@H](NC(=O)[C@@H](N)Cc1ccc(O)cc1)C(=O)NCC(=O)N(C)[C@@H](Cc1ccccc1)C(=O)NCCO` [DAMGO], the results for the IC50 in the assay listed under Cavia porcellus [4] and in the assay filed under Mus musculus [6] were 28.3 nM and 950 nM, respectively. The compound also came in with an inhibitory constant (Ki) in [8] of 1280 nM.
Take `NC(=O)[C@H](CCCN=C(N)N)NC(=O)[C@H](CCCN=C(N)N)NC(=O)[C@@H]1CC(=O)NCCC[C@@H](NC(=O)[C@@H](N)Cc2ccc(O)cc2)C(=O)N[C@@H](Cc2ccccc2)C(=O)N1` [listing 1 of 2 here]: the results for the inhibition constant Ki (at Mu-type opioid receptor [9]; in assay [10]) were 23.6 nM and 1880 nM, respectively. Further, the IC50 in the assay listed under Cavia porcellus [4] was 40.9 nM; in the assay filed under Mus musculus [6], 745 nM.
`NC(N)=NCCC[C@@H](NC(=O)C(N)Cc1ccc(O)cc1)C(=O)NC(Cc1ccccc1)C(=O)NCCC(N)C(=O)O` (stereo not given in full): the Ratio in assay [11] amounted to 2180; in assay [7], 2.56. Moreover, the Relative potency was found to be 1.63 in assay [12], 0.0173 in the assay filed under Mus musculus [13], 0.956 in the assay listed under Cavia porcellus [14] and 0.000202 in [15]. Besides, the values for the Ke in the assay listed under Cavia porcellus [2] and in the assay filed under Mus musculus [3] were 1.32 nM and 1.01 nM, respectively. For the same compound, the half-inhibitory concentration (IC50) was found to be 257 nM in the assay listed under Cavia porcellus [4] and 659 nM in the assay listed under Mus musculus [6].
Turning to `NCCCC[C@H](NC(=O)[C@H](Cc1ccccc1)NC(=O)[C@@H](CCCN=C(N)N)NC(=O)[C@@H](N)Cc1ccc(O)cc1)C(N)=O`, the Ke is reported as 1.17 nM in the assay filed under Cavia porcellus [2] and 1.64 nM in the assay filed under Mus musculus [3]. For the same compound, the results for the IC50 in the assay filed under Cavia porcellus [4] and in the assay listed under Mus musculus [6] were 254 nM and 781 nM, respectively.
Turning to `CCC[C@@H](NC(=O)[C@@H](N)Cc1ccc(O)cc1)C(=O)N[C@@H](Cc1ccccc1)C(=O)N[C@@H](CCCN)C(N)=O` (H-Y[dNva]F[Orn]-NH2), the Relative potency in the assay listed under Cavia porcellus [1] was determined as 2.36; in the assay filed under Mus musculus [5] it was 0.042. The Ke is 1.55 nM in the assay filed under Cavia porcellus [2] and 1.47 nM in the assay filed under Mus musculus [3]. Moreover, the IC50 stood at 104 nM in the assay filed under Cavia porcellus [4] and 271 nM in the assay listed under Mus musculus [6]. The Ratio in assay [7] came to 2.61.
With `NCCC[C@H](NC(=O)[C@H](Cc1ccccc1)NC(=O)[C@@H](CCCN=C(N)N)NC(=O)[C@@H](N)Cc1ccc(O)cc1)C(N)=O`, the results for the Ratio in [11] and in assay [7] were 7740 and 3.15, respectively. The Relative potency amounted to 7.83 in [12], 0.0105 in the assay listed under Mus musculus [13], 0.712 in the assay filed under Cavia porcellus [14] and 0.000272 in [15]. Moreover, the Ke in the assay listed under Cavia porcellus [2] is 1.24 nM; in the assay listed under Mus musculus [3] it was 1.13 nM. Also, the IC50 came to 346 nM in the assay listed under Cavia porcellus [4] and 1090 nM in the assay filed under Mus musculus [6].
Take `C[C@@H](NC(=O)[C@@H](N)Cc1ccc(O)cc1)C(=O)N[C@@H](Cc1ccccc1)C(=O)N[C@@H](Cc1ccccc1)C(=O)N[C@@H](CCCN=C(N)N)C(=O)N[C@@H](CCCN=C(N)N)C(N)=O`: the inhibition constant Ki on Mu-type opioid receptor [16] is 2.57 nM; in assay [8] it was 167 nM. Also, the Relative potency in the assay listed under Mus musculus [13] stood at 0.00875; in [17] it was 3.67; in the assay filed under Cavia porcellus [14], 11.4; in assay [18], 0.0152. Also, the Ke was 0.57 nM in the assay listed under Cavia porcellus [2] and 1.27 nM in the assay listed under Mus musculus [3]. Besides, the half-maximal inhibitory concentration (IC50) in the assay listed under Cavia porcellus [4] came to 21.6 nM; in the assay filed under Mus musculus [6], 1300 nM. Moreover, in [7], the Ratio was 60.2.
With `N=C(N)NCCC[C@@H](NC(=O)C(N)Cc1ccc(O)cc1)C(=O)NC(Cc1ccccc1)C(=O)NCCC(N)C(=O)O` (stereo not given in full), the inhibitory constant (Ki) worked out at 12600 nM in assay [19] and 5.78 nM at Mu-type opioid receptor [20].
On to `NC(=O)[C@@H]1CC(=O)NCCC[C@@H](NC(=O)[C@@H](N)c2ccc(O)cc2)C(=O)N[C@@H](Cc2ccccc2)C(=O)N1` [listing 1 of 2 here], for which the IC50 came to 36.2 nM in the assay filed under Cavia porcellus [4] and 3880 nM in the assay listed under Mus musculus [6]. The Ki in assay [19] is 2220 nM; at Mu-type opioid receptor [20], 10.4 nM.
On to `NC(=O)[C@H]1CC(=O)NCCC[C@H](NC(=O)[C@@H](N)c2ccc(O)cc2)C(=O)N[C@@H](Cc2ccccc2)C(=O)N1`, for which the Ratio in assay [11] stood at 213. For the same compound, the Relative potency in [12] was found to be 0.907; in [15] it was 0.00114.
As for `NC(=O)[C@@H]1CC(=O)NCCC[C@@H](NC(=O)[C@@H](N)c2ccc(O)cc2)C(=O)N[C@@H](Cc2ccccc2)C(=O)N1` [listing 2 of 2 here], the results for the Relative potency in the assay listed under Mus musculus [13] and in the assay filed under Cavia porcellus [14] were 0.00294 and 6.8, respectively. Further, the Ke in the assay filed under Cavia porcellus [2] worked out at 1.57 nM; in the assay filed under Mus musculus [3], 2.11 nM. The Ratio in assay [7] amounted to 107.
For `CCCC[C@H](NC(=O)[C@H](Cc1ccccc1)NC(=O)[C@@H](CCC)NC(=O)[C@@H](N)Cc1ccc(O)cc1)C(N)=O`, the Ki on Mu-type opioid receptor [21] is 3.53 nM; in assay [8], 181 nM. Also, the Relative potency in the assay filed under Cavia porcellus [1] is 8.04; in [17], 2.67; in [22], 0.014; in the assay filed under Mus musculus [5], 0.0745. Besides, the Ke in the assay listed under Cavia porcellus [2] is given as 1.72 nM; in the assay listed under Mus musculus [3], 1.27 nM. In addition, the half-inhibitory concentration (IC50) stood at 30.6 nM in the assay filed under Cavia porcellus [4] and 153 nM in the assay listed under Mus musculus [6]. Further, the Ratio in assay [7] is given as 5.
As to `NC(=O)[C@H](CCCN=C(N)N)NC(=O)[C@H](CCCN=C(N)N)NC(=O)[C@@H]1CC(=O)NCCC[C@@H](NC(=O)[C@@H](N)Cc2ccc(O)cc2)C(=O)N[C@@H](Cc2ccccc2)C(=O)N1` [listing 2 of 2 here], the Relative potency in the assay listed under Mus musculus [13] turned out to be 0.0153; in the assay listed under Cavia porcellus [14], 6.01. In addition, the Ke in the assay filed under Cavia porcellus [2] came to 2.03 nM; in the assay filed under Mus musculus [3], 2.02 nM. Further, the Ratio in assay [7] is listed as 18.2.
With `C[C@@H](NC(=O)[C@@H](N)Cc1ccc(O)cc1)C(=O)N[C@@H](Cc1ccccc1)C(=O)N[C@@H](Cc1ccccc1)C(N)=O` (H-Y[dA]FF-NH2), the Relative potency in the assay listed under Cavia porcellus [1] stood at 76.2; in assay [17], 6.15; in the assay filed under Mus musculus [5], 0.0143; in assay [18], 0.00405. In addition, the Ke in the assay listed under Cavia porcellus [2] amounted to 0.789 nM; in the assay listed under Mus musculus [3] it was 1.31 nM. Besides, the IC50 is 3.23 nM in the assay filed under Cavia porcellus [4] and 797 nM in the assay filed under Mus musculus [6]. The Ratio in [7] came to 247.

Usually IC50 stands for the concentration needed to halve the response being measured. In general, Ki refers to the dissociation constant of the complex between target and ligand, obtained from inhibition or displacement.
